“Also recorded” adds a separate entry of the source. Read-outs that look alike come from different tables or passages of the source.
Legend:
C1 clone tumor = assay: Xenograft tumor assay of C1 clone; type: in vivo; details: 50 mg/kg BW ip once every two days, 1×10^5 C1 cells sc, SCID mice, volume recorded day 10 to 25
Text: All animal experiments were reviewed and approved by the Institutional Animal Care and Use Committee of National Taiwan University College of Medicine. For teratoma formation assay, 1×10^6 cells of CAR^+/mPSCs^Oct-4^_^hi C1, E9, and C7 clones were subcutaneously injected into 8-week-old male severe combined immunodeficiency (SCID) mice. For limiting dilution transplantation experiment, the C1 clone (10^5, 10^4, 10^3 and 10^2 cells) or CAR^+/mPSCs (10^6 cells) were subcutaneously injected into SCID mice. For C1-GFP clone and A549 cells derived tumor experiments. C1-GFP clone (1×10^5 cells) or A549 (1×10^6 cells) were subcutaneously injected into SCID mice. Tumor dimensions were measured using calipers once every 3 d, and volumes (cm^3) were calculated according to the standard formula: length×width^2/2. At the end of the experiment, the tumors were surgically excised and photographed. In metastasis assay, 3×10^5 cells of C1 clone, and CAR^+/mPSCs were injected into the lateral tail vein of SCID mice. Lung metastatic nodules were evaluated at week 5 by necropsy and histological examination. […]
1×10^5 cells of CAR^+/mPSCs^Oct-4^_^hi C1 clone were subcutaneously injected into 8-week-old male severe combined immunodeficiency (SCID) mice. […] Tumor dimensions were measured using calipers once every 2 or 3 d, and volumes (cm^3) were calculated according to the standard formula: length×width^2/2. […]

[1] = test system: blood vessel formation induced by C1 clone; assay: Chick chorioallantoic membrane (CAM) assay of C1 clone; type: in vivo, chicken; details: 2 μM Tie2 kinase inhibitor, C1 clone 1×10^6 cells on CAM
Protocol: Fertilized chicken eggs were incubated at 37° C. in an atmosphere of 80% humidity. At day 8 of the development, 1×10^6 cells were loaded onto a membrane and implanted on the top of the growing CAM. At day 11, CAM was fixed with 4% paraformaldehyde, and photographed using a stereomicroscope and digital camera. Branching points were quantified using NIH Image J software with the angiogenesis plugin.
At day 11, CAM was fixed with 4% paraformaldehyde, and photographed using a stereomicroscope and a digital camera. Branching points were quantified using NIH Image J software with the angiogenesis plugin.

[2] = test system: CAR+/mPSCs^Oct-4_hi C1, E9, and C7 clones; assay: Cell viability assay (WST-1), C1, E9 and C7 clones together; type: cell-based, mouse; details: for IC50: range over C1, E9, and C7 clones, 48 h
Protocol: (§1) Cells were seeded at 3×10^3 cells per well in 96-well plates and incubated for 18 h. Cells were treated with cisplatin (Sigma-Aldrich) or paclitaxel (Sigma-Aldrich) at various concentrations. After 48 h, WST-1 assay (Roche) was performed to determine cell viability according to the manufacturer's instructions. Cell viability was expressed as a percentage of the non-treated group, and the IC50 values were determined.

[3] = test system: CAR+/mPSCs^Oct-4_hi C1 clone; assay: Cell viability assay (WST-1), C1 clone; type: cell-based, mouse; details: 48 h, mean ± SD
Protocol: as §1

[4] = test system: CAR+/mPSCs^Oct-4_hi C7 clone; assay: Cell viability assay (WST-1), C7 clone; type: cell-based, mouse; details: 48 h, mean ± SD
Protocol: as §1

[5] = test system: CAR+/mPSCs^Oct-4_hi E9 clone; assay: Cell viability assay (WST-1), E9 clone; type: cell-based, mouse; details: 48 h, mean ± SD
Protocol: as §1

A549 cells = assay: Cell viability assay (WST-1), A549 cells; type: cell-based, human; details: 48 h, mean ± SD
Protocol: as §1

[6] = IC50 in C1, E9, C7 clones versus A549 cells
[7] = Mus musculus, read-out: IC50 of paclitaxel

## COc1ccc2cc(-c3nc(-c4ccc([S+](C)[O-])cc4)[nH]c3-c3ccncc3)ccc2c1 (stereo not drawn) [Tie2 kinase inhibitor]
C1 clone tumor
  tumor volume / tumor growth: the tumor growth of C1 clone is inhibited
C1 clone tumor; listed as Tie2 inhibitor
  tumor volume / tumor growth: significantly reduced the tumor volume
[1]
  blood vessel formation (branch point number): inhibited the blood vessel formation; also recorded: decreases the blood vessel formation induced by C1 clone

## N.N.[Cl][Pt][Cl] [Cisplatin, cisplatin]
[2]; [6]
  resistance to cisplatin compared to the A549 cells: 2-3 fold
[2]; read-out: IC50 of cisplatin
  IC50: 26.4 to 34.7 µM
[3]; read-out: IC50 of cisplatin
  IC50: 34.7 ± 1.4 µM
[4]; read-out: IC50 of cisplatin
  IC50: 32.7 ± 1.6 µM
[5]; read-out: IC50 of cisplatin
  IC50: 26.4 ± 2.3 µM
A549 cells; read-out: IC50 of cisplatin
  IC50: 13.5 ± 2.2 µM

## CC(=O)O[C@H]1C(=O)[C@@]2(C)[C@H]([C@H](OC(=O)c3ccccc3)[C@]3(O)C[C@H](OC(=O)[C@H](O)[C@@H](NC(=O)c4ccccc4)c4ccccc4)C(C)=C1C3(C)C)[C@]1(OC(C)=O)CO[C@@H]1C[C@@H]2O [Paclitaxel, paclitaxel]
[2]; [6]
  IC50 of paclitaxel higher than that of the A549 cells: approximately 6 fold
[2]; [7]
  IC50: 0.0432 to 0.0472 µM
[3]; [7]
  IC50: 0.0472 ± 0.002 µM
[4]; [7]
  IC50: 0.045 ± 0.0025 µM
[5]; [7]
  IC50: 0.0432 ± 0.0036 µM
A549 cells; Homo sapiens, read-out: IC50 of paclitaxel
  IC50: 0.0082 ± 0.0035 µM

— patent publication US20180037871A1, “CANCER INITIATING CELL AND USE THEREOF” (priority 2016, published 2018)
